Data published in patent US5455228A, “Peptidase resistant thrombin receptor peptide ligand” (The Research Foundation of State University of New York, priority 1993, dated 1995).
Numbered stars: 1 amine (or outer) side, 2 acyl side, 3 side chain; on linkers, the order of the positions; unused ones are H or OH. Square brackets hold non-standard residues; d marks the D form. Ends that are not written are not given here. Peptide text beside a SMILES is read from it. ξ: configuration not given here. ξIsoserine = O=C(C(O)CN[*:1])[*:2]

What was measured:
plasma aminopeptidase M [1] = target: T1, plasma aminopeptidase M (Homo sapiens, UniProt P15144); experiment: Loss of peptide platelet aggregating activity during plasma incubation; type: in vitro ADME; conditions: for aggregating activity after plasma incubation: 125 μM peptide; for platelet aggregating activity when incubated in plasma: 2 mM peptide mixed 1:1 with platelet-poor plasma, up to 2 hours
T1 construct: from tissue; host or cells: human citrated platelet-poor plasma
Description: (§1) Platelet Aggregation. Platelet Rich Plasma (hereinafter "PRP") was obtained from human blood anticoagulated with sodium citrate (0.01 volume of 40% trisodium citrate) or acid-citrate-dextrose (hereinafter "ACD") solution A (ACD-A; 8.5 mL of blood: 1.5 mL of ACD-A) by centrifugation at 700 g for 3.5 min. at 22° C. Platelet-poor plasma (hereinafter "PPP") was obtained by centrifuging the PRP at 2000g for 8 min. at 22° C. The pH of the citrated PRP after preparation was about 7.7 whereas the pH of the ACD-A PRP was about 7.0. The pH of the PRP was adjusted, when necessary with 1M NaOH or 1M HCl and maintained at about 7.70. Platelet aggregation was performed in a dual-channel aggregometer (Chronolog, Hayertown, Pa.) using matched stir bars.
[…] Aliquots were removed at 15, 30, 45, 60 and 120 minutes and analyzed for both the ability to aggregate platelets and peptide cleavage.

plasma aminopeptidase M [2] = target: T1, plasma aminopeptidase M; experiment: Peptide digestion during incubation with platelet-poor plasma, HPLC; type: in vitro ADME
Description: (§2) Peptide Digestion Studies. For T-11 amino acids 1 to 11 of SEQ ID NO:1 and (D-Ser)T-11 SEQ ID NO:11 digestions, 0.11 volume of 20 mM peptide in 0.15M NaCl, 0.01 Tris/HCl, pH 7.4, was added to citrated platelet-poor plasma to achieve a final concentration of 2 mM. Samples were incubated for 2 hours at 37° C. and then the plasma proteins were precipitated with 9-10% trichloroacetic acid at 4° C. for at least 30 min. After centrifugation at 12000 g at 22° C. for 3 min., the supernatant was analyzed to determine peptide cleavage by reverse-phase HPLC (C8; Applied Biosystems 300 RP Aquapore; 220×4.6-mm column); elution was with 0.1% trifluoroacetic acid with a 0-60% acetonitrile gradient.
(§3) To determine the amino acid sequence of the digestion products of T-11 amino acids 1 to 11 of SEQ ID NO:1 and (D-Ser)T-11 SEQ ID NO:11 and to assess their ability to aggregate platelets, the peptide (2 mM) was incubated with citrated PPP for 2 hours at 37° C., plasma proteins were precipitated with trichloroacetic acid, and the supernatant after centrifugation was both analyzed and fractionated on the analytical reverse-phase column. Peak fractions were dried in a vacuum centrifuge (Speed-Vac, Savant, Farmingdale, N.Y.) and dissolved in either buffer (0.15M NaCl and 0.01 M Tris/HCl, pH 7.4) for aggregation studies or 0.1% trifluoroacetic acid for amino acid analysis. Quantitative amino acid analysis of the peptides was performed with commercial reagents and equipment (Pico-Tag workstation and C-18 Pico-Tag column; Waters-Millipore, Bedford, Mass.). The amino acid sequence could then be inferred from the amino acid content of each peak.
(§4) For the Ser-Phe-Leu-Leu-Arg-Asn (SFLLRN) amino acids 1 to 6 of SEQ ID NO:1 and (iso-Ser)-Phe-Leu-Leu-Arg-Asn ((iso-S))FLLRN SEQ ID NO:7 studies, 2 mM peptide in buffer (0.15 M NaCl, 0.01 M Tris/HCl, pH 7.4) was mixed with an equal volume of citrated platelet-poor plasma (1:1) and separately with an equal volume of buffer and incubated at 37° C for variable periods of time. Aliquots were removed at 15, 30, 45, 60 and 120 minutes and analyzed for both the ability to aggregate platelets and peptide cleavage.
(§5) For peptide digestion studies for SFLLRN amino acids 1 to 6 of SEQ ID NO:1 and (iso-S)FLLRN SEQ ID NO:7, samples were removed at various times and analyzed for peptide digestion by HPLC after precipitating the plasma proteins with trichloroacetic acid.

[3] = target: T2, thrombin receptor on platelets (Homo sapiens, UniProt P25116); experiment: Dose response of peptide-induced platelet aggregation in platelet-rich plasma; type: cell-based
T2 construct: Citrated platelet-rich plasma (PRP; 307,000 platelets/μl, pH 7.0; 0.45 ml) was stirred in a cuvette at 37° C; endogenous in cells; host or cells: human platelets in citrated platelet-rich plasma
T2 sequence (P25116 22-425): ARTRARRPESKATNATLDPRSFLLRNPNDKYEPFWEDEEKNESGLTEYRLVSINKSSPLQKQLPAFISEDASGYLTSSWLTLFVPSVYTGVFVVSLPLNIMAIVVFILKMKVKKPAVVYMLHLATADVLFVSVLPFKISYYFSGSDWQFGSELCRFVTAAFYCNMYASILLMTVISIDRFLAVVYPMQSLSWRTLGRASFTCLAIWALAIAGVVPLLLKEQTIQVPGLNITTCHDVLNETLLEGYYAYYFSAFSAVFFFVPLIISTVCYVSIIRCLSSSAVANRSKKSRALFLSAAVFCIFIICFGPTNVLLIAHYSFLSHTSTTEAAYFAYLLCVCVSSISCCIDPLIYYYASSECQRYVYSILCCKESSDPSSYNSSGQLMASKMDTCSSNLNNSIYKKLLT
Description: as §1
Dose Response of Peptide-Induced Aggregation. Citrated platelet-rich plasma (PRP; 307,000 platelets/μl, pH 7.0; 0.45 ml) was stirred in a cuvette at 37° C. and then […] of Ser-Phe-Leu-Leu-Arg-Asn-Pro-Asn-Asp-Lys-Tyr (T-11) amino acids 1 to 11 of SEQ ID NO:1, (D-Ser)-Phe-Leu-Leu-Arg-Asn-Pro-Asn-Asp-Lys-Tyr ((DS)T-11) SEQ ID NO:11, Ser-Phe-Leu-Leu-Arg-Asn amino acids 1 to 6 of SEQ ID NO:1 or (iso-Ser)-Phe-Leu-Leu-Arg-Asn SEQ ID NO:7 peptide was added to achieve the final concentration as follows: Ser-Phe-Leu-Leu-Arg-Asn-Pro-Asn-Asp-Lys-Tyr amino acids 1 to 11 of SEQ ID NO:1 was added to a maximum concentration of 2.9 μM; (D-Ser)-Phe-Leu-Leu-Arg-Asn-Pro-Asn-Asp-Lys-Tyr SEQ IS NO:11 was added to a maximum concentration of 940 μM; Ser-Phe-Leu-Leu-Arg-Asn amino acids 1 to 6 of SEQ ID NO:1 was added to a maximum concentration of 1.7 μM; (iso-Ser)-Phe-Leu-Leu-Arg-Asn SEQ ID NO:7 was added up to a maximum concentration of 4.9 μM.

plasma aminopeptidase M [4] = test system: T3, plasma aminopeptidase M; experiment: Peptide digestion during incubation with platelet-poor plasma, HPLC; type: in vitro ADME, human; conditions: human; for remaining at 2 h, 1 mM: 120 min; for metabolised at 2 h, 1 mM: incubated with plasma at 37° C., about two hours, read-out: peptide cleavage
T3 construct: from tissue; host or cells: human citrated platelet-poor plasma
Description: as §2, §3, §4, §5

aminopeptidase M = aminopeptidase M (Homo sapiens, UniProt P15144); conditions: Coller et al. 1992; not with thrombin; cited from earlier work
plasma aminopeptidase M [5] = target: T1, plasma aminopeptidase M; conditions: previously demonstrated, Coller et al. 1992; cited from earlier work
gel-filtered platelets = conditions: Vu et al. 1991; cited from earlier work
[6] = 50% citrated platelet-poor plasma, 1 mM final, 50% platelet-poor plasma, 37° C., read-out: percentage remaining intact
[7] = 1 mM final, 50% platelet-poor plasma, 37° C., 2 hours

T1 sequence (P15144 whole entry): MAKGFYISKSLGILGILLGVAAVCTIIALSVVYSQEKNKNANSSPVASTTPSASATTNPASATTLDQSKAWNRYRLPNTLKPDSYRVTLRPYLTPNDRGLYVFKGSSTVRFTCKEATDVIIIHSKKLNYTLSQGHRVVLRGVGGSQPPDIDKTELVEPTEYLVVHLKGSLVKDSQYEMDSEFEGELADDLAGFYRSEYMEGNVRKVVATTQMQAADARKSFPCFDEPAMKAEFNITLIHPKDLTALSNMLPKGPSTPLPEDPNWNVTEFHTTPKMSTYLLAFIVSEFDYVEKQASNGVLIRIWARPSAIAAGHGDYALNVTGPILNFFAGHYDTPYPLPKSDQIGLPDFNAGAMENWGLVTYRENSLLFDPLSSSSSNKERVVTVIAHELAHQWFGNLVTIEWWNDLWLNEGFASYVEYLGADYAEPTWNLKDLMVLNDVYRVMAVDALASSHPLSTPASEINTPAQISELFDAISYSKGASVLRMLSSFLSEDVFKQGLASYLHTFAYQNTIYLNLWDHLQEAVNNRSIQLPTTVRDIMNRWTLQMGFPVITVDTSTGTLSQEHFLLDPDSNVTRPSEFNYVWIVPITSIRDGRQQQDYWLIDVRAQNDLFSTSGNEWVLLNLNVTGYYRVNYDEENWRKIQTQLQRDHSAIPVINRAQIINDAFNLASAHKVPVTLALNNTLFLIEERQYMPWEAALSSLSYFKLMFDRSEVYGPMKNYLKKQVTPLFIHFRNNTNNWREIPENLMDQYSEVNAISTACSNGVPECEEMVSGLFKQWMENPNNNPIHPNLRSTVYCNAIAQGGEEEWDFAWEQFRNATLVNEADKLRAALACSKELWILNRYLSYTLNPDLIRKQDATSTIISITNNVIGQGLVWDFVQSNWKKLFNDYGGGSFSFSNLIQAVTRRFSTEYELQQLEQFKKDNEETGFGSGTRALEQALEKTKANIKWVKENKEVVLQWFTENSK
aminopeptidase M, sequence (P15144 whole entry, species assumed): as the sequence (P15144 whole entry) above

CC(C)C[C@H](NC(=O)[C@H](Cc1ccccc1)NC(=O)[C@H](N)CO)C(=O)N[C@@H](CC(C)C)C(=O)N[C@@H](CCCNC(=N)N)C(=O)N[C@@H](CC(N)=O)C(=O)N1CCC[C@H]1C(=O)N[C@@H](CC(N)=O)C(=O)N[C@@H](CC(=O)O)C(=O)N[C@@H](CCCCN)C(=O)N[C@@H](Cc1ccc(O)cc1)C(N)=O [(DS)T-11, (D-Ser)-Phe-Leu-Leu-Arg-Asn-Pro-Asn-Asp-Lys-Tyr] (H-[dS]FLLRNPNDKY-NH2)
aggregating activity retained after plasma incubation (plasma aminopeptidase M [1]; incubated with plasma for 1 hour): retained more than half its aggregating activity | peptide cleavage (in words) (plasma aminopeptidase M [2]; 2 mM peptide, platelet-poor plasma, 37° C., 2 hours): did not undergo any identifiable cleavage

CC(C)C[C@H](NC(=O)[C@H](Cc1ccccc1)NC(=O)C(O)CN)C(=O)N[C@@H](CC(C)C)C(=O)N[C@@H](CCCNC(=N)N)C(=O)N[C@@H](CC(N)=O)C(N)=O (stereo partly drawn) [(iso-S)FLLRN, (iso-Ser)-Phe-Leu-Leu-Arg-Asn-NH2] (ξIsoserine-FLLRN-NH2)
aggregating activity after plasma incubation (plasma aminopeptidase M [1]; 45 min): retained its full aggregating activity | aggregating activity after plasma incubation (plasma aminopeptidase M [1]; 1 hour): some decrease in activity | aggregating activity after plasma incubation (plasma aminopeptidase M [1]; 2 hours): some aggregating activity remained | platelet aggregating activity when incubated in plasma (plasma aminopeptidase M [1]; 37° C.): lost little if any activity | peptide activity after incubation with buffer rather than plasma (plasma aminopeptidase M [1]; buffer, 37° C., 2 hours): no decrease in peptide activity | platelet aggregating activity after plasma incubation (plasma aminopeptidase M [1]; plasma at 37° C., at least two hours): remained unchanged | platelet activating activity relative to SFLLRN ([3]; citrated PRP): 15-20% | platelet aggregating activity (in words) ([3]; citrated PRP): substantially active | EC50 ([3]; citrated PRP, 37° C., read-out: concentration to achieve half-maximal aggregation): ~4 µM | slope of platelet disaggregation phase ([3]; peptide at 3.7 μM, dose giving equivalent peak aggregation response): 4 U/min | remaining at 2 h, 1 mM (plasma aminopeptidase M [4]; [6]): ~83% | metabolised at 2 h, 1 mM (plasma aminopeptidase M [4]; citrated platelet-poor plasma): ~17% | extent of digestion (in words) (plasma aminopeptidase M [2]; [7]): minimal digestion | peptide remaining intact (in words) (plasma aminopeptidase M [2]; 1 mM final, 50% platelet-poor plasma, 37° C., first 60 min): Virtually all | peptide cleavage (in words) (plasma aminopeptidase M [2]; incubated with plasma at 37° C., 45 minutes): did not undergo identifiable cleavage

CC(C)C[C@H](NC(=O)[C@H](CC(C)C)NC(=O)[C@H](Cc1ccccc1)NC(=O)[C@@H](N)CO)C(=O)N[C@@H](CCCN=C(N)N)C(=O)N[C@@H](CC(N)=O)C(N)=O [SFLLRN]
time to loss of all aggregating activity (plasma aminopeptidase M [1]; 125 μM peptide incubated with plasma): ≤ 18 min | platelet aggregating activity when incubated in plasma (plasma aminopeptidase M [1]; 37° C.): rapidly lost platelet aggregating activity | time to decrease of platelet aggregating activity (plasma aminopeptidase M [1]; incubated with plasma at 37° C.): ≤ 15 min | platelet aggregating activity after plasma incubation (plasma aminopeptidase M [1]; plasma at 37° C., 60 minutes): nearly lost | metabolised at 0.25 h, 1 mM (plasma aminopeptidase M [4]; 50% citrated platelet-poor plasma, 1 mM final, 50% platelet-poor plasma, 37° C., 15 min, read-out: peptide no longer intact): 35% | remaining at 0.5 h, 1 mM (plasma aminopeptidase M [4]; 50% citrated platelet-poor plasma, 1 mM final, 50% platelet-poor plasma, 37° C., 30 min, read-out: percentage remaining intact): 49% | remaining at 0.75 h, 1 mM (plasma aminopeptidase M [4]; 50% citrated platelet-poor plasma, 1 mM final, 50% platelet-poor plasma, 37° C., 45 min, read-out: percentage remaining intact): 23% | remaining at 1 h, 1 mM (plasma aminopeptidase M [4]; 50% citrated platelet-poor plasma, 1 mM final, 50% platelet-poor plasma, 37° C., 60 min, read-out: percentage remaining intact): 16% | remaining at 2 h, 1 mM (plasma aminopeptidase M [4]; [6]): 4% | metabolised at 2 h, 1 mM (plasma aminopeptidase M [4]; citrated platelet-poor plasma): 96% | time to detectable cleavage (plasma aminopeptidase M [2]; 1 mM final, 50% platelet-poor plasma, 37° C.): ≤ 10 min | extent of digestion (in words) (plasma aminopeptidase M [2]; [7]): nearly complete digestion

CC(C)C[C@@H](N)[C@H](O)C(=O)N[C@H](C(=O)N[C@H](C(=O)N[C@@H](CC(=O)O)C(=O)O)C(C)C)C(C)C [amastatin]
effect on aggregation induced by T-11 (aminopeptidase M): enhanced aggregation induced by T-11

SFLLRNPNDKY-NH2 [T-11, Ser-Phe-Leu-Leu-Arg-Asn-Pro-Asn-Asp-Lys-Tyr]
time to loss of all aggregating activity (plasma aminopeptidase M [1]; incubated with plasma): ≤ 60 min | platelet aggregating ability after preincubation in plasma (plasma aminopeptidase M [1]; plasma at 37° C.): progressive loss of platelet aggregating ability | incubation time sufficient to produce significant inhibition of aggregating ability (plasma aminopeptidase M [1]; preincubation in plasma at 37° C.): ≤ 10 min | aggregating activity when incubated in plasma (plasma aminopeptidase M [5]): lost aggregating activity | remaining at 2 h, 2 mM (plasma aminopeptidase M [4]; citrated platelet-poor plasma, 2 mM peptide, platelet-poor plasma, 37° C., 2 hours, read-out: peptide remaining intact): 34%

SFLLRNPNDKYEPF [T-14, 14 amino acid peptide mimicking the new amino terminus of the cleaved thrombin receptor]
aggregation of gel-filtered platelets (gel-filtered platelets): able to aggregate gel-filtered platelets directly | aggregating activity when incubated in plasma (plasma aminopeptidase M [5]): lost aggregating activity
